Measurements reported in ChEMBL document CHEMBL1201862, “PubChem BioAssay data set” (2004).
Activity calls are given as the source filed them.

Key:
[1] = target: Long-chain-fatty-acid--AMP ligase FadD28 (Mycobacterium tuberculosis, UniProt P9WQ59); test: Fluorescence polarization aasay to screen for inhibitors that compete for the binding of FadD28 to a bisubstrate Measured in Biochemical System Using Plate Reader - 2147-01_Inhibitor_Dose_CherryPick_Activity.; type: functional, Mycobacterium tuberculosis H37Rv
[2] = target: ADP-ribosylation factor GTPase-activating protein 1 (Rattus norvegicus, UniProt Q62848); test: Fluorescence polarization-based biochemical high throughput dose response screening assay to identify inhibitors of ADP-ribosylation factor GTPase activating protein 1 (ARFGAP1).; type: functional
[3] = target: Arf-GAP with SH3 domain, ANK repeat and PH domain-containing protein 1 (Homo sapiens, UniProt Q9ULH1); type: functional;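 also: biochemical fluorescence polarization dose–response screen measuring inhibition of ASAP1; ASAP1 GAP domain stimulating GTP hydrolysis by truncated human ARF1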
[4] = target: Ras and Rab interactor 1/Tyrosine-protein kinase ABL1 (Homo sapiens, UniProt P00519+Q13671); type: functional;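 also: biochemical TR-FRET dose-response test measuring inhibition of binding between Rin1 and Abl proteins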
[5] = viability loss in HeLa cells – cytotoxicity control for MgcRacGAP inhibitor project, dose response (AID 624300); type: functional
[6] = target: T1, Rac GTPase-activating protein 1 (Homo sapiens, UniProt Q9H0H5); test: blockers of MgcRacGAP-driven Rac1 GTP hydrolysis – biochemical, ADP Hunter fluorescence, primary and confirmatory, confirmation (AID 624330); type: functional
T1 sequence (Q9H0H5 whole entry): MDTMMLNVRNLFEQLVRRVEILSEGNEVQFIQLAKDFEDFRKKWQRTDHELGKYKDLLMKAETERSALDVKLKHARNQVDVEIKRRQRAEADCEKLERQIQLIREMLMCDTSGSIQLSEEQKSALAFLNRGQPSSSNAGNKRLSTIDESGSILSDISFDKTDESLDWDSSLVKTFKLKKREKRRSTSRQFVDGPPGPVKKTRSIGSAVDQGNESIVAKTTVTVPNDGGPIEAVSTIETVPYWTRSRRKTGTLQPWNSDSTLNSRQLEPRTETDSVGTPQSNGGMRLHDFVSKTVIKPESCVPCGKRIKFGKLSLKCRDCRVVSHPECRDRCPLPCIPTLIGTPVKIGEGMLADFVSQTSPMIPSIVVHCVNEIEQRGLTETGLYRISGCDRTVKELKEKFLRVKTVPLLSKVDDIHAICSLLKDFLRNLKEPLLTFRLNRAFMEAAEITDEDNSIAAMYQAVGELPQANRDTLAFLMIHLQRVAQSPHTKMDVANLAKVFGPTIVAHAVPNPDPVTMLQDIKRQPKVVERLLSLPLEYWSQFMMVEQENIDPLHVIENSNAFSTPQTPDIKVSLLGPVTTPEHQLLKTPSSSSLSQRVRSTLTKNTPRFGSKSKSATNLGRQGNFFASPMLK

[7] = target: T2, DNA repair protein RAD52 homolog (Homo sapiens, UniProt P43351); type: functional, biochemical
T2 sequence (P43351 whole entry): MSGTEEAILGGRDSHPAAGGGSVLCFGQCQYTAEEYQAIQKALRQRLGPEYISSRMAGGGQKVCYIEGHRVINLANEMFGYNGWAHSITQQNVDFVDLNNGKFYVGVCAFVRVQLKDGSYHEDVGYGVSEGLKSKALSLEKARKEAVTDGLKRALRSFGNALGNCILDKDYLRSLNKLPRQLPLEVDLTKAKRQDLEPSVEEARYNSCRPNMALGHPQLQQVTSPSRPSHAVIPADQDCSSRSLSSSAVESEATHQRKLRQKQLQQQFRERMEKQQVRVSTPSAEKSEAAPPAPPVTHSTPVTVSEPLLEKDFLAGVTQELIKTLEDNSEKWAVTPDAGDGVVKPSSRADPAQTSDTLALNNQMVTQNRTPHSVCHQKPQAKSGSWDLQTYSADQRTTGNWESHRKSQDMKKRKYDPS

Protein Wnt-3a = Protein Wnt-3a (Mus musculus, UniProt P27467); test: antagonism of Wnt3a pathway luciferase reporter – Wnt-LIGHT cells, luminescence, selectivity assay for Gli-SUFU antagonist project, dose response (AID 651570); type: functional; details: read-out: IC50_Mean;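 also: Wnt-LIGHT reporter cells stimulated with conditioned medium from Wnt3a-producing cells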
[8] = target: T3, Low molecular weight phosphotyrosine protein phosphatase (Homo sapiens, UniProt P24666); type: functional; details: read-out: IC50_Mean
T3 sequence (P24666 whole entry): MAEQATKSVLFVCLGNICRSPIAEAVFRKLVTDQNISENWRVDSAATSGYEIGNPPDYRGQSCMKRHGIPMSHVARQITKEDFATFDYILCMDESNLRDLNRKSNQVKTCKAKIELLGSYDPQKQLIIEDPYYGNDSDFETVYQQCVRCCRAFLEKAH

[9] = target: T3, Low molecular weight phosphotyrosine protein phosphatase; type: functional; details: read-out: IC50_Mean; remark: listed apart in the source
[10] = kidney cell line viability loss – HEK293T, luminescence plate reader, powder samples, set 4, cytotoxicity control, dose response (AID 651863); type: functional, cell-based; details: HEK293
[11] = Late stage assay provider results from the probe development effort to identify selective inhibitors of heat shock protein 90 (HSP90): Absorbance-based cell proliferation assay in SKBR3 cells.; type: functional; details: SK-BR-3
[12] = Late stage assay provider results from the probe development effort to identify selective inhibitors of heat shock protein 90 (HSP90): Absorbance-based cell proliferation assay in MCF7 cells.; type: functional
[13] = A Cell-Based Confirmatory Screen for Compounds that Inhibit VEEV, TC-83 (8).; type: functional
[14] = target: T4, Ubiquitin-conjugating enzyme E2 N (Homo sapiens, UniProt P61088); type: functional;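 also: Dose-response confirmation in a TR-FRET assay detecting UBC13-driven polyubiquitin chain formation, inhibition measured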
T4 sequence (P61088 whole entry): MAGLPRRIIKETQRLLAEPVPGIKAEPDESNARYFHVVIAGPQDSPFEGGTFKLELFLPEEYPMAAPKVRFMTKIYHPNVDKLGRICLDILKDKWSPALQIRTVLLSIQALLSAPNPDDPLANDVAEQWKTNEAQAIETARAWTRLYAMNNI

Interleukin-8 = Interleukin-8 (Homo sapiens, UniProt P10145); test: Dose Response confirmation of uHTS small molecule hits for cystic fibrosis induced NFkb Inhibitors in a PAF-induced IL8 counterscreen.; type: functional; details: read-out: IC50_Mean
Sequence of Interleukin-8 (P10145 whole entry): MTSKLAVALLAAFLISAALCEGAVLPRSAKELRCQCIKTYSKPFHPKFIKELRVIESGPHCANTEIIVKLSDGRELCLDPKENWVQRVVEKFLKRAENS

Sequence of ADP-ribosylation factor GTPase-activating protein 1 (Q62848 whole entry, the tested form may be a part): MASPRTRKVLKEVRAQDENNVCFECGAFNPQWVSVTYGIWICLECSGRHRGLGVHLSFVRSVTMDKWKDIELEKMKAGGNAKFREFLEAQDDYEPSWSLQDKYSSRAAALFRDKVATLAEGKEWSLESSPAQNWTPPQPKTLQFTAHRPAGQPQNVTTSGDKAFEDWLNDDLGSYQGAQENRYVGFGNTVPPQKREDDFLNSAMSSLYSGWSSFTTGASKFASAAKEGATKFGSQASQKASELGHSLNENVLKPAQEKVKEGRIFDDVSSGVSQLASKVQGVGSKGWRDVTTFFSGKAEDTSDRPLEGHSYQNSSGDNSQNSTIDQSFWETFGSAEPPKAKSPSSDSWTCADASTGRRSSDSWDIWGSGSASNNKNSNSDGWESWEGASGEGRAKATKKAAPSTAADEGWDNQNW
Sequence of Ras and Rab interactor 1/Tyrosine-protein kinase ABL1 (P00519 whole entry): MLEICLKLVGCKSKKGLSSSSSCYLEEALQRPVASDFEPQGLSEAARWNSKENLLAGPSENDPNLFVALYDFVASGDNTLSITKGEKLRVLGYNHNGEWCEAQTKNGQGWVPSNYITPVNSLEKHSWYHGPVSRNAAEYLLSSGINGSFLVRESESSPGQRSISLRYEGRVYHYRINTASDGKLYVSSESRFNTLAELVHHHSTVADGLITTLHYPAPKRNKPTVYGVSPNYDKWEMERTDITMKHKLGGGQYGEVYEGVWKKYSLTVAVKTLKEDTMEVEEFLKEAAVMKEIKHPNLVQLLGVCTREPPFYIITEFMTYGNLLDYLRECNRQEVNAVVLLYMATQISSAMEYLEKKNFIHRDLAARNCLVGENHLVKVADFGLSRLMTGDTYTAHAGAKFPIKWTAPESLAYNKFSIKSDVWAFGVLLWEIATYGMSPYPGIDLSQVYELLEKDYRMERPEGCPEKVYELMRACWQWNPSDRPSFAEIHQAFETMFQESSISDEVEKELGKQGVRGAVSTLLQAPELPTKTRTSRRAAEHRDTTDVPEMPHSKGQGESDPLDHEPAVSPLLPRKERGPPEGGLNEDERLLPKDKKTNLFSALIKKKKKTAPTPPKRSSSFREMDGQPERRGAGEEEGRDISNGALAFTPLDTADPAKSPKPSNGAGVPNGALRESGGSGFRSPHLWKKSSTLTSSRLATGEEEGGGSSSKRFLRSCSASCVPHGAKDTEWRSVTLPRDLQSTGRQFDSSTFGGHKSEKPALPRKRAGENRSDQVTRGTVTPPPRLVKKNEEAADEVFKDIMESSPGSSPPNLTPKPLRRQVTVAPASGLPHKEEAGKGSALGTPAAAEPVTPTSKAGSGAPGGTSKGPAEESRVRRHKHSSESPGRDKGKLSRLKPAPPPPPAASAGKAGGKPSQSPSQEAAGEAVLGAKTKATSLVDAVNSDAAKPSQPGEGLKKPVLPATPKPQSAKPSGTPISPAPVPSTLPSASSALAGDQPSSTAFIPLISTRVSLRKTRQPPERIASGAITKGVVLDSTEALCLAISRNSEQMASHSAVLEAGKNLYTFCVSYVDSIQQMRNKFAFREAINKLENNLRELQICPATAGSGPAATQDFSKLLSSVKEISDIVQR
Sequence of Ras and Rab interactor 1/Tyrosine-protein kinase ABL1 (Q13671 whole entry): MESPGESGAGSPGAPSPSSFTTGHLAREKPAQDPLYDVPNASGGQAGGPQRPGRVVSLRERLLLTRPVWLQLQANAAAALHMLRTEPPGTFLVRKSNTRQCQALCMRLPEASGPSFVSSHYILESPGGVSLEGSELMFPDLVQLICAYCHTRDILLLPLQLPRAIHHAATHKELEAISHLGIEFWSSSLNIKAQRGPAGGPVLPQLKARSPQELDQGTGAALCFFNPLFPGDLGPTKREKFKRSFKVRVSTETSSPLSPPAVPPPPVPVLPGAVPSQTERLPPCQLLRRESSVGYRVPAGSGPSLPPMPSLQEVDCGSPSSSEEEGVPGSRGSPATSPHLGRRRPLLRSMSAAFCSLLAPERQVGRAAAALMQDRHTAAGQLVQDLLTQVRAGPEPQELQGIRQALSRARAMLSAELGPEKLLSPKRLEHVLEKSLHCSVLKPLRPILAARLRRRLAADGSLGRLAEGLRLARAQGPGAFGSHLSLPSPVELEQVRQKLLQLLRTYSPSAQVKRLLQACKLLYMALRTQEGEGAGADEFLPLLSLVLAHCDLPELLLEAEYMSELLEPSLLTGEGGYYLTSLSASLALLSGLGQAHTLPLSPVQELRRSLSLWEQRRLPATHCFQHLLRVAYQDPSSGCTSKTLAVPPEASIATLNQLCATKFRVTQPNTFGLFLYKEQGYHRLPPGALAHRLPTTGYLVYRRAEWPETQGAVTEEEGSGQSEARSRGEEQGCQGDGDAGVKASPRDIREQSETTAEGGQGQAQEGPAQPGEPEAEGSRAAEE
Sequence of Arf-GAP with SH3 domain, ANK repeat and PH domain-containing protein 1 (Q9ULH1 whole entry, the tested form may be a part): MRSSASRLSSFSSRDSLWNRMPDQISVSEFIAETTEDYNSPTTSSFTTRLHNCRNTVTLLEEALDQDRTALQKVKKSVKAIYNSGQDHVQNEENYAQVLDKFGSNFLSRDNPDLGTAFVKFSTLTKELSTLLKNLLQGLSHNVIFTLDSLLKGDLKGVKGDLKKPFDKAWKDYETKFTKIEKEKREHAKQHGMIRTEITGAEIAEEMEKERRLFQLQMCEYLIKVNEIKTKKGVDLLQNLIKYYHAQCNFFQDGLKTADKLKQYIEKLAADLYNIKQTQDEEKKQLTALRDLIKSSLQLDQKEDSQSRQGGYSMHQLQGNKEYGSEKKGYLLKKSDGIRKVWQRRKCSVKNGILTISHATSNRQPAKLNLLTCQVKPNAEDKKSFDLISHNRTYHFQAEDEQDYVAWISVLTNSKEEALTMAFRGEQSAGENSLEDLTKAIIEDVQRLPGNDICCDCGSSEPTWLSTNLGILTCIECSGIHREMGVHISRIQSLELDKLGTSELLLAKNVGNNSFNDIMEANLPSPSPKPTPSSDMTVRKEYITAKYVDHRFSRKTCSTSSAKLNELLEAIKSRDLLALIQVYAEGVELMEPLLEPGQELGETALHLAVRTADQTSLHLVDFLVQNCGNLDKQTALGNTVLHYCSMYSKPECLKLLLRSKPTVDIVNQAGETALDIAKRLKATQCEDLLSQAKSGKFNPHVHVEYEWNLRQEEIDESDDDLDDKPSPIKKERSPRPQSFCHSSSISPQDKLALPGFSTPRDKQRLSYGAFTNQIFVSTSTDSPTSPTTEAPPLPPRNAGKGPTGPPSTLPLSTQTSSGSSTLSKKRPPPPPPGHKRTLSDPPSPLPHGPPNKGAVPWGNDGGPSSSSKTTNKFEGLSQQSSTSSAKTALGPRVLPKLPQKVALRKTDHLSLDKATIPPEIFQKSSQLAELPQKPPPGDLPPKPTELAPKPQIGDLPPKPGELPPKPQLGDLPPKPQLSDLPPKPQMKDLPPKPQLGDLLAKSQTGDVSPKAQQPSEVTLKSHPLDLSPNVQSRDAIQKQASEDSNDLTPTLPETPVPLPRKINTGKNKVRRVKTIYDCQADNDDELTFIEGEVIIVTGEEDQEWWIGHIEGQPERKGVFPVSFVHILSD
Sequence of Long-chain-fatty-acid--AMP ligase FadD28 (P9WQ59 whole entry): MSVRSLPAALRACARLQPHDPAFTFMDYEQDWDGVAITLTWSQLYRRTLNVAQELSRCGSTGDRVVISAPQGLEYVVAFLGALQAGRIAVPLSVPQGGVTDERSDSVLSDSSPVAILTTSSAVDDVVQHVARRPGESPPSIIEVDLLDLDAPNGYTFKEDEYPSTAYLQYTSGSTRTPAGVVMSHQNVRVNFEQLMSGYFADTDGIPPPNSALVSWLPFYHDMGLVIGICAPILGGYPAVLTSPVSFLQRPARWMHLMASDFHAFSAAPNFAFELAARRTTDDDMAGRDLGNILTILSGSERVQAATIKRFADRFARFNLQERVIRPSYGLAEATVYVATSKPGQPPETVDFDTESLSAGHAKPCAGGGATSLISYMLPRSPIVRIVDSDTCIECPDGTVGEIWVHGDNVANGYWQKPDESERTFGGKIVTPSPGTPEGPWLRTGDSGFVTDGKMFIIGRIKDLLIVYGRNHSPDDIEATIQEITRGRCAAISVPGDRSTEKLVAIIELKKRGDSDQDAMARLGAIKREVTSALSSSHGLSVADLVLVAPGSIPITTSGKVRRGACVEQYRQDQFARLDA
Sequence of Protein Wnt-3a (P27467 whole entry): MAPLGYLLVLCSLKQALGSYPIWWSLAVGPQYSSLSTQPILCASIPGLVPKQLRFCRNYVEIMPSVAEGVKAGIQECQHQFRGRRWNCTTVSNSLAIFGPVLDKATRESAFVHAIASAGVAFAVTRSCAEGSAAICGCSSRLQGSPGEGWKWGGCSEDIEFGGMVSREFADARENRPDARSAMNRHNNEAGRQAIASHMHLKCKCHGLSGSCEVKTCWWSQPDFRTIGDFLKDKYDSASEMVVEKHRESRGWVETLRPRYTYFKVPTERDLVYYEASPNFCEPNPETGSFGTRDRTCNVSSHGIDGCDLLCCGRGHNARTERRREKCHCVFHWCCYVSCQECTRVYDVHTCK

In the case of `CCn1ncc(Br)c1C(=O)Nc1ccc(OC(F)(F)F)cc1`, the AC50 [1] is reported as 52 µM (active).
In the case of `CC(=O)c1cccc(NC(=O)c2cccc3c(-c4cccnc4)coc23)c1`, the IC50 [2] is reported as 129 µM (inactive) and the IC50 [3] is reported as 79.4 µM (inactive).
In the case of `COc1cccc2c3cccc(OC)c3c3[nH]cnc3c12`, the IC50 [4] is reported as 15.8 µM (inactive), the CC50 [5] is reported as 43.9 µM (active) and the IC50 [6] is reported as 82.8 µM (active). The AC50 [7] was 513 nM (active).
With `C/C(=N\NC(=O)C(=O)Nc1ccc(C)c(Cl)c1)c1ccncc1` the IC50 (Protein Wnt-3a) was 909 nM (active).
With `COCCNc1nc(NCc2ccc(C)cc2C)c2sccc2n1` the IC50 [8] was 15.6 µM (active) and the IC50 [9] was 13.8 µM (active).
For `O=C(NC[C@@H]1c2ccccc2CCN1C(=O)[C@@H]1CCCC[C@@H]1C(=O)O)OCC1c2ccccc2-c2ccccc21`, the AC50 [10] was 46.3 µM (active).
For `COc1c[nH]c(C(=O)Nc2cccc(C(C)=O)c2)cc1=O`, the IC50 [11] was > 100 µM (inactive) and the IC50 [12] was > 100 µM (inactive).
With `CNCCN(C)Cc1nc2ccc(C#N)cc2c(=O)n1-c1ccccc1F` the IC50 [13] was 3.69 µM (active).
In the case of `CN(C)c1ccnc2sc3c(=O)n(Cc4ccccc4)cnc3c12`, the IC50 [14] is reported as > 20 µM (inactive) and the IC50 (Interleukin-8) is reported as 12.2 µM (inactive).
